Data from US10238633B2, “Methods for treating pulmonary emphysema using substituted 2-Aza-bicyclo[2.2.1]heptane-3-carboxylic acid (benzyl-cyano-methyl)-amides inhibitors of Cathepsin C” (Boehringer Ingelheim International GmbH, priority 2013, dated 2019).
Where two headings read alike, the source gives them in different places.

Tests used:
[1] = microsomes
Experimental: (§1) Determination of Metabolic Stability with Human Liver Microsomes
(§2) The metabolic degradation of the test compound is assayed at 37° C. with pooled human liver microsomes. The final incubation volume of 100 μl per time point contains TRIS buffer pH 7.6 (0.1 M), magnesium chloride (5 mM), microsomal protein (1 mg/ml) and the test compound at a final concentration of 1 μM. Following a short preincubation period at 37° C., the reactions are initiated by addition of beta-nicotinamide adenine dinucleotide phosphate, reduced form (NADPH, 1 mM) and terminated by transferring an aliquot into acetonitrile after different time points. Additionally, the NADPH-independent degradation is monitored in incubations without NADPH, terminated at the last time point. The [%] remaining test compound after NADPH independent incubation is reflected by the parameter c(control) (metabolic stability). The quenched incubations are pelleted by centrifugation (10,000 g, 5 min). An aliquot of the supernatant is assayed by LC-MS/MS for the amount of parent compound.
(§3) The half-life (t1/2 INVITRO) is determined by the slope of the semilogarithmic plot of the concentration-time profile. The intrinsic clearance (CL_[sequence]) is calculated by considering the amount of protein in the incubation: CL_[sequence] [μl/min/mg protein]=(In 2/(half-life [min]*protein content [mg/ml]))*1,000.

[2] = tested on: Neutrophil elastase activity in U937 cells; experiment: Determination of neutrophil elastase activity in U937 cytosolic lysate preparation after incubation with test compound; assay type: cell-based; details: Homo sapiens, U-937, read-out: Reduction of NE-activity in U937 cells IC50
Experimental: Determination of Neutrophil Elastase Activity in U937 Cytosolic Lysate Preparation after Incubation with Test Compound
Optiplate 384F were purchased from PerkinElmer (Prod. No. #6007270). 24 well Nunclon cell culture plates (No. 142475) and 96 well plates (No. 267245) were from Nunc. Dimethylsulfoxid (DMSO) was from Sigma (Prod. No. D8418). Nonidet-P40 (NP40) was from USBiological (Prod. No. N3500)
Substrate, specific for Neutrophil elastase, was from Bachem (MeOSuc-Ala-Ala-Pro-Val-AMC; Prod. No. 1-1270).
Human neutrophil elastase was from Calbiochem (Prod. No. 324681)
Tris-buffer (100 mM Tris; 1M NaCL; pH 7.5)
Tris-buffer+HSA 0.1%; Human Serum Albumin from Calbiochem (Cat#. 126658)
Serine-protease buffer (20 mM Tris; 100 mM NaCL; pH 7.5)+0.1% HSA
Serine protease lysis buffer: 20 mM Tris-HCL; 100 mM NaCl pH 7.5; +0.2% Nonidet-P40;
PBS: phosphate buffered saline, without Ca and Mg, from Gibco
U937 from ECACC (Cat. No. 85011440) cultured in suspension at 37° C. and 5% CO2.
Cell density: 0.2-1 Mio. Cells/ml.
Medium: RPMI1640 GlutaMAX (No. 61870) with 10% FCS from Gibco
Cell Seeding and Treatment:
Compounds in 100% DMSO were diluted in Medium (—FCS) with 10% DMSO and further diluted according to the experiment planned.
20 μl of the compound solution was transferred in the respective wells of the 24 well plate and diluted with 2 ml cell suspension/well containing […] (final concentration of DMSO=0.1%). Compound dilution factor=100
Compounds (up to 7 concentrations) were tested in triplicates with 3 wells for the DMSO 0.1% control, incubated for 48 hours without medium change at 37° C., 5% CO2 and 95% relative humidity.
Cell Harvesting and Cell Lysate:
Transfer the cell suspension in 2.2 ml Eppendorf cups. Separate cells from medium by centrifugation (400×g; 5 min; RT); discard the supernatant. Resuspend in 1 ml PBS; centrifugation (400×g; 5 min; RT); wash cells twice with PBS. Add 100 μl Serin lysis buffer (ice cold) to the cell pellet; resuspend the pellet and store on ice for 15 minutes. Remove debris by centrifugation at 15000×g for 10 min at 4° C. Transfer 80-100 μl lysate supernatant in 96 well plate and store immediately at −80° C.
Neutrophil Elastase Activity Assay:
Frozen lysates were thawn at 37° C. for 10 minutes and stored on ice. Protein content was determined with Bradford protein assay. Lysates were diluted to 0.2-0.5 mg/ml protein in serine protease buffer+HSA.
Standard: NE (100 μg/ml stock solution in Tris-buffer; stored at −80° C.) was diluted in Tris-buffer+HSA to 750 ng/ml, and further serially diluted 1:2 for the standard curve.
Buffer, blank, standard and lysate samples were transferred into 384 well plate
Blank: 5 μl Tris-buffer+10 μl Tris-buffer+HSA+5 μl Substrate
Standard: 5 μl Tris-buffer+10 μl NE (diff. conc.)+5 μl Substrate
Lysate: 5 μl Tris-buffer+10 μl Lysat+[…] Substrate
The increase in fluorescence (Ex360 nm/Em 460 nm) is determined over 30 minutes with a Molecular Device Spectramax M5 Fluorescence Reader. Kinetic Reduction (Vmax units/sec); 4 vmax points. The amount of neutrophil elastase (ng/ml) is calculated using the standard curve and the Spectramax software. The result is interpolated to ng/mg lysate protein using excel formula functions. […] IC50 is calculated using Graphpad Prism; nonlinear fitting (log(inhibitor) vs. response—Variable slope).

[3] = Determination of metabolic stability with human liver microsomes; details: pooled human liver microsomes, 37° C., test compound 1 μM, NADPH
Experimental: as §1, §2, §3

SMILES	In vitro stability in human liver microsome incubations t½ [1] [h]	IC50 [2] [nM]	In vitro stability in human liver microsome incubations t½ [3] [h]
N#C[C@H](Cc1ccc(-c2cc(C(=O)N3CCn4nccc4C3)co2)cc1F)NC(=O)[C@H]1N[C@@H]2CC[C@H]1C2 [Example 240]	1.83		
N#C[C@H](Cc1ccc(N2CC3CCN(C4CCOC4)C3C2)cc1F)NC(=O)[C@H]1N[C@@H]2CC[C@H]1C2 (some centres unmarked) [Example 348]		2	2.17
N#Cc1ccc(-c2ccc(C[C@@H](C#N)NC(=O)[C@H]3N[C@H]4C[C@@H]3[C@@H]3C[C@@H]34)c(F)c2)s1 [Example 40]	>2.17		
CN1C(=O)Cc2ccc(-c3ccc(CC(C#N)NC(=O)[C@H]4N[C@@H]5CC[C@H]4C5)c(F)c3)cc21 (some centres unmarked) [Example 15]			2.17
N#C[C@H](Cc1ccc(N2CCCN3CCCC3C2)cc1F)NC(=O)[C@H]1N[C@@H]2CC[C@H]1C2 (some centres unmarked) [Example 271]		1.7	2.17
CS(=O)(=O)c1ccc(-c2ccc(C[C@@H](C#N)NC(=O)[C@H]3N[C@@H]4CC[C@H]3C4)c(F)c2)cc1OCC(F)F [Example 252]			2.17
